According to publication PMC6009861, “Development of terphenyl-2-methyloxazol-5(4H)-one derivatives as selective reversible MAGL inhibitors” (Journal of Enzyme Inhibition and Medicinal Chemistry, 2017):

What was measured:
MAGL [1] = molecular target: T1, MAGL (Homo sapiens, UniProt Q99685); test: MAGL-inhibition assay (4-NPA substrate, absorbance 405 nm); format: biochemical; conditions: for MAGL/FAAH selectivity: ratio of FAAH IC50 to MAGL IC50 (fold)
T1 construct: purchased Cayman Chemical
T1 sequence (Q99685 1-303): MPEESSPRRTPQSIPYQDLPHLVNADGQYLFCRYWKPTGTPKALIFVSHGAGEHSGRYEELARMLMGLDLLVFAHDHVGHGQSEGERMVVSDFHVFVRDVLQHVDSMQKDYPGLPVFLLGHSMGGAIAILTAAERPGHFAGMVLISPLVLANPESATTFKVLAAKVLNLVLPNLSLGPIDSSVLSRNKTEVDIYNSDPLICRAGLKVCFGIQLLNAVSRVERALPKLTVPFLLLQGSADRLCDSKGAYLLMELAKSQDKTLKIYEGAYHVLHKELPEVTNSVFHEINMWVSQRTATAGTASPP
Procedure: Human recombinant MAGL, and 4-nitrophenylacetate substrate (4-NPA) were from Cayman Chemical. The IC50 values for compounds were generated in 96-well microtiter plates. The MAGL reaction was conducted at RT at a final volume of 200 µL in 10 mM Tris buffer, pH 7.2, containing 1 mM EDTA. A total of 150 µL of 4-NPA 133.3 µM (final concentration = 100 µM) was added to 10 µL of DMSO containing the appropriate amount of compound. The reaction was initiated by the addition of 40 µL of MAGL (11 ng/well) in such a way that the assay was linear over 30 min. […] After the reaction had proceeded for 30 min, absorbance values were then measured by using a VictorX3 PerkinElmer instrument at 405 nm. Two reactions were also run: one reaction containing no compounds and the second one containing neither inhibitor nor enzyme. IC50 values were derived from experimental data using the Sigmoidal dose–response fitting of GraphPad Prism software as reported earlier.

human FAAH = molecular target: T2, human FAAH (Homo sapiens, UniProt O00519); test: FAAH inhibition assay (AMC arachidonoyl amide, fluorescence); format: biochemical; conditions: AMC arachidonoyl amide 10 µM, 30 min, RT
T2 sequence (O00519 1-579): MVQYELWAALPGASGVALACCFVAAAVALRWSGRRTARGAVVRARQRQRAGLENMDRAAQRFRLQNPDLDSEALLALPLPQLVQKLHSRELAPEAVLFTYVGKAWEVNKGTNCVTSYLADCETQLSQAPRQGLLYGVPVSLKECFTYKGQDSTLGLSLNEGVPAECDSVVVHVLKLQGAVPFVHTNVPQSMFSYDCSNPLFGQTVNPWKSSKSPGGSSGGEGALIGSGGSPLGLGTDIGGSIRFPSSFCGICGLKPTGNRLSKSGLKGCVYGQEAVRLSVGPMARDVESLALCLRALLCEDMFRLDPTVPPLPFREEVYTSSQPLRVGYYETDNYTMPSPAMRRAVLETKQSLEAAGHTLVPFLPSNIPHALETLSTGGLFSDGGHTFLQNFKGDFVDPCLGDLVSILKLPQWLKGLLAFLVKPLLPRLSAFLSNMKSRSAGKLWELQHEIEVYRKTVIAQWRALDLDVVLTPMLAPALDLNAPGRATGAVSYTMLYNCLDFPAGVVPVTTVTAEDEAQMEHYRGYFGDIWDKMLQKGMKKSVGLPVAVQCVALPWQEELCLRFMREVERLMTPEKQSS
Procedure: The IC50 values for compounds were generated in 96-well microtiter plates. The FAAH reaction was conducted at RT at a final volume of 200 µL in 125 mM Tris buffer, pH 9.0, containing 1 mM EDTA. A total of 150 µL of AMC arachidonoyl amide 13.3 µM (final concentration = 10 µM) was added to 10 µL of DMSO containing the appropriate amount of compound. The reaction was initiated by the addition of 40 µL of FAAH (0.9 µg/well) in such a way that the assay was linear over 30 min. After the reaction had proceeded for 30 min, fluorescence values were then measured by using a VictorX3 PerkinElmer instrument at an excitation wavelength of 340 nm and an emission of 460 nm. Two reactions were also run: one reaction containing no compounds and the second one containing neither inhibitor nor enzyme. IC50 values were derived from experimental data using the Sigmoidal dose − response fitting of GraphPad Prism software as reported earlier. To remove possible false-positive results, for each compound concentration, a blank analysis was carried out, and the final fluorescence results were obtained detracting the fluorescence produced by the presence of all the components except FAAH in the same conditions.

MAGL [2] = molecular target: T1, MAGL; test: MAGL preincubation assay; format: biochemical; conditions: preincubation 0, 30 and 60 min with hMAGL
Procedure: The MAGL reaction was conducted at RT at a final volume of 200 µL in 10 mM Tris buffer, pH 7.2, containing 1 mM EDTA. A total of 150 µL of MAGL (11 ng/well) was added to 10 µL of DMSO containing the appropriate amount of compound. After 0, 30, and 60 min of incubation time the reaction was initiated by the addition of 40 µL of 4-NPA 500 µM. The enzyme activity was then measured according to the procedure described above.

MAGL [3] = molecular target: T1, MAGL; test: MAGL dilution assay; format: biochemical; conditions: 10 µM incubated 60 min, then 40x dilution (final 0.25 µM)
Procedure: The enzyme (880 ng in 75 µL of Tris buffer, pH 7.2) was incubated during 60 min at RT with 5 µL of compound 20b (concentration of 10 µM in the mixture) dissolved in DMSO. The MAGL-inhibitor mixture was then diluted 40-fold with the buffer. After 15 min of incubation, the reaction was initiated on a 160 µL aliquot by the addition of 40 µL of 4-NPA 500 µM and the enzyme activity was measured according to the procedure described above.

OVCAR3 = test: Cell viability assay, OVCAR3; format: cell-based; conditions: OVCAR-3; OVCAR3 human ovarian cancer cells, 96 h
Procedure: (§1) COV318, OVCAR-3 (from ATCC) and hMSC (from AB Cell-Bio) were maintained at 37 °C in a humidified atmosphere containing 5% CO2 accordingly to the supplier. Normal (1.5 × 10^4) and tumor (5 × 10^2) cells were plated in 96-well culture plates. The day after seeding, vehicle or compounds were added at different concentrations to the medium. Compound was added to the cell culture at a concentration ranging from 200 to 0.02 µM. Cell viability was measured after 96 h according to the supplier (Promega, G7571) with a Tecan F200 instrument. IC50 values were calculated from logistical dose–response curves. Averages were obtained from three independent experiments, and error bars are standard deviations (n = 3).

CAOV3 = test: Cell viability assay, CAOV3; format: cell-based; conditions: Caov-3; CAOV3 human ovarian cancer cells, 96 h
[4] = test system: noncancerous human mesenchymal stem cells (hMSC); test: Cell viability assay, hMSC; format: cell-based; conditions: 96 h
Procedure: as §1

[5] = test system: EAE mouse model of multiple sclerosis; parameters: method as in PMID 25298214; conditions: cited from earlier work
[6] = human recombinant MAGL, 4-NPA 100 µM, 30 min, RT

Structure (SMILES) | IC50 (MAGL [1]; [6]) [µM] | MAGL/FAAH selectivity (MAGL [1]) | IC50 (human FAAH) [µM] | further results
COc1nn(-c2ccc(NC(=O)OCc3ccccc3)c(C)c2)c(=O)o1 [CAY10499, reference compound] | 0.144 ± 0.004 | 0.1 | 0.0147 ± 0.0002 | 
CC1=N/C(=C\c2ccc(-c3ccccc3)c(-c3ccccc3)c2)C(=O)O1 [Compound 5, (Z)-4-[(1,1′:2′,1′′-Terphenyl)-4′-ylmethylene]-2-methyloxazol-5(4H)-one] | 0.837 ± 0.018 | 3 | 2.32 ± 0.051 | 
CC1=N/C(=C\c2ccc(-c3ccccc3)cc2-c2ccccc2)C(=O)O1 [Compound 7, (Z)-4-[(1,1′:3′,1′′-Terphenyl)-4′-ylmethylene]-2-methyloxazol-5(4H)-one] | 0.546 ± 0.02 | 33 | 18.2 ± 0.904 | 
CC1=N/C(=C\c2cccc(-c3ccccc3)c2-c2ccccc2)C(=O)O1 [Compound 9, (Z)-4-[(1,1′:2′,1′′-Terphenyl)-3′-ylmethylene]-2-methyloxazol-5(4H)-one] | 2.56 ± 0.172 | 8 | 20.1 ± 1.44 | 
CC1=N/C(=C\c2cc(-c3ccccc3)cc(-c3ccccc3)c2)C(=O)O1 [Compound 13, (Z)-4-[(1,1′:3′,1′′-Terphenyl)-5′-ylmethylene]-2-methyloxazol-5(4H)-one] | 0.457 ± 0.01 | 32 | 14.8 ± 1.18 | 
CC1=N/C(=C\c2cc(-c3ccccc3)ccc2-c2ccccc2)C(=O)O1 [Compound 15, (Z)-4-[(1,1′:4′,1′′-Terphenyl)-2′-ylmethylene]-2-methyloxazol-5(4H)-one] | 0.32 ± 0.01 | 34 | 10.9 ± 0.161 | 
CC1=N/C(=C\c2cc(-c3ccc(F)cc3)ccc2-c2ccc(F)cc2)C(=O)O1 [Compound 20a, (Z)-4-{[4,4′′-Difluoro-(1,1′:4′,1′′-terphenyl)-2′-yl]methylene}-2-methyloxazol-5(4H)-one] | 0.683 ± 0.05 | 41 | 28 ± 1.31 | 
COc1ccc(-c2ccc(-c3ccc(OC)cc3)c(/C=C3\N=C(C)OC3=O)c2)cc1 [Compound 20b, (Z)-4-{[4,4′′-Dimethoxy-(1,1′:4′,1′′-terphenyl)-2′-yl]methylene}-2-methyloxazol-5(4H)-one] | 0.348 ± 0.038 | 104 | 36.1 ± 1.12 | Change of MAGL blocking ability (IC50) with preincubation time (MAGL [2]): did not show any significant increase; Inhibition mechanism in dilution assay (MAGL [3]): reversible inhibition; IC50 (OVCAR3): 41.6 µM; IC50 (CAOV3): 23.8 µM; IC50 [4]: > 100 µM
CC1=N/C(=C\c2cc(-c3ccc(OC(F)(F)F)cc3)ccc2-c2ccc(OC(F)(F)F)cc2)C(=O)O1 [Compound 20c, (Z)-4-{[4,4′′-Bis(trifluoromethoxy)-(1,1′:4′,1′′-terphenyl)-2′-yl]methylene}-2-methyloxazol-5(4H)-one] | 4.19 ± 0.299 | 4 | 17.7 ± 1.2 | IC50 (MAGL [1]; approximate values): 4 to 6 µM
CC1=N/C(=C\c2cc(-c3ccc(C(F)(F)F)cc3)ccc2-c2ccc(C(F)(F)F)cc2)C(=O)O1 [Compound 20d, (Z)-4-{[4,4′′-Bis(trifluoromethyl)-(1,1′:4′,1′′-terphenyl)-2′-yl]methylene}-2-methyloxazol-5(4H)-one] | 6.76 ± 1.13 | 4 | 29 ± 1.16 | IC50 (MAGL [1]; approximate values): 4 to 6 µM
CC1=N/C(=C\c2cc(-c3cccc(F)c3)ccc2-c2cccc(F)c2)C(=O)O1 [Compound 20e, (Z)-4-{[3,3′′-Difluoro-(1,1′:4′,1′′-terphenyl)-2′-yl]methylene}-2-methyloxazol-5(4H)-one] | 0.628 ± 0.032 | 19 | 11.7 ± 0.895 | 
CC1=N/C(=C\c2cc(-c3ccc4c(c3)OCO4)ccc2-c2ccc3c(c2)OCO3)C(=O)O1 [Compound 20f, (Z)-4–[2,5-Bis(benzo[d][1,3]dioxol-5-yl)benzylidene]-2-methyloxazol-5(4H)-one] | 0.673 ± 0.023 | 35 | 23.7 ± 1.35 | 
COc1ccc(-c2ccc(-c3ccc(OC)c(F)c3)c(/C=C3\N=C(C)OC3=O)c2)cc1F [Compound 20g, (Z)-4-{[3,3′′-Difluoro-4,4′′-dimethoxy-(1,1′:4′,1′′-terphenyl)-2′-yl]methylene}-2-methyloxazol-5(4H)-one] | 0.335 ± 0.002 | 67 | 22.3 ± 1.24 | 
CC1=N/C(=C\c2cc(-c3ccc(Cl)cc3)ccc2-c2ccc(Cl)cc2)C(=O)O1 [Compound 20h, (Z)-4-{[4,4′′-Dichloro-(1,1′:4′,1′′-terphenyl)-2′-yl]methylene}-2-methyloxazol-5(4H)-one] | 0.476 ± 0.039 | 24 | 11.5 ± 0.998 | 
O=C(Oc1ccc([N+](=O)[O-])cc1)N1CCC(C(O)(c2ccc3c(c2)OCO3)c2ccc3c(c2)OCO3)CC1 [JZL-184, reference compound] |  |  | 3.3 ± 0.205 | 
O=C(CCCCCc1ccc(-c2ccccc2)cc1)OCc1ccc2c(c1)OCO2 [c21] |  |  |  | Catalepsy or other motor impairments ([5]; mouse): not accompanied by catalepsy or other motor impairments; Effect on clinical progression in EAE mouse model ([5]; multiple sclerosis mouse model): ameliorated the clinical progression
